Laboratory results published in PMC6440567 (Clinical and Translational Science, 2018).

How the values were obtained:
[1] = taken to be; ref not given; cited from earlier work
[2] = Individual predicted steady‐state exposures; assay type: in vivo, human; details: for AUC / Cmax: human, plasma
[3] = Final ceftazidime PopPK model; assay type: in vivo, human

In the case of CC(C)(O/N=C(\C(=O)N[C@@H]1C(=O)N2C(C(=O)[O-])=C(C[n+]3ccccc3)CS[C@H]12)c1csc(N)n1)C(=O)O [Ceftazidime, ceftazidime], the “free plasma concentrations as % of total plasma concentrations” value [1] is listed as 85%, the AUC ([2]; AUCss,0–24 geometric mean (CV), Age (years) 18–65) is listed as 800 µg·h/mL and the AUC ([2]; AUCss,0–24 geometric mean (CV), Age (years) > 65–75) is listed as 997 µg·h/mL. It also gave an AUC ([2]; AUCss,0–24 geometric mean (CV), Age (years) > 75–89) of 1100 µg·h/mL, an AUC ([2]; AUCss,0–24 geometric mean (CV), Asian population: China (only)) of 892 µg·h/mL and an AUC ([2]; AUCss,0–24 geometric mean (CV), Asian population: Japan) of 1020 µg·h/mL. For the same molecule, the AUC ([2]; AUCss,0–24 geometric mean (CV), Baseline WBC count Missing) was 924 µg·h/mL, the AUC ([2]; AUCss,0–24 geometric mean (CV), Concomitant use of OAT1/OAT3 inhibitor(s): No) was 869 µg·h/mL and the AUC ([2]; AUCss,0–24 geometric mean (CV), Concomitant use of OAT1/OAT3 inhibitor(s): Yes) was 934 µg·h/mL. For the same molecule, the AUC ([2]; AUCss,0–24 geometric mean (CV), Fever at baseline: Missing) was 929 µg·h/mL, the AUC ([2]; AUCss,0–24 geometric mean (CV), Fever at baseline: No) was 888 µg·h/mL and the AUC ([2]; AUCss,0–24 geometric mean (CV), Fever at baseline: Yes) was 859 µg·h/mL. The AUC ([2]; AUCss,0–24 geometric mean (CV), Obesity I (29.9 ≤ BMI < 34.9 kg/m^2)) was 841 µg·h/mL, the AUC ([2]; AUCss,0–24 geometric mean (CV), Obesity II (34.9 ≤ BMI < 39.9 kg/m^2)) was 894 µg·h/mL and the AUC ([2]; AUCss,0–24 geometric mean (CV), Obesity III (BMI ≥ 39.9 kg/m^2)) was 806 µg·h/mL. For the same molecule, the AUC ([2]; AUCss,0–24 geometric mean (CV), Obesity: Missing) was 959 µg·h/mL, the AUC ([2]; AUCss,0–24 geometric mean (CV), Obesity: Normal) was 878 µg·h/mL and the AUC ([2]; AUCss,0–24 geometric mean (CV), Race: Asian (non‐Chinese; non‐Japanese)) was 968 µg·h/mL. The AUC ([2]; AUCss,0–24 geometric mean (CV), Race: Chinese and Taiwanese) was 884 µg·h/mL, the AUC ([2]; AUCss,0–24 geometric mean (CV), Race: Japanese) was 1020 µg·h/mL and the AUC ([2]; AUCss,0–24 geometric mean (CV), Race: White/other) was 848 µg·h/mL. For the same molecule, the Cmax ([2]; C max,ss geometric mean (CV), Age (years) 18–65) was 70 µg/mL, the Cmax ([2]; C max,ss geometric mean (CV), Age (years) > 65–75) was 77.1 µg/mL and the Cmax ([2]; C max,ss geometric mean (CV), Age (years) > 75–89) was 76.8 µg/mL. The Cmax ([2]; C max,ss geometric mean (CV), Asian population: China (only)) was 78.4 µg/mL, the Cmax ([2]; C max,ss geometric mean (CV), Asian population: Japan) was 90.4 µg/mL and the Cmax ([2]; C max,ss geometric mean (CV), Asian population: Korea) was 79.9 µg/mL. It also gave a Cmax ([2]; C max,ss geometric mean (CV), Concomitant use of OAT1/OAT3 inhibitor(s): No) of 71.7 µg/mL, a Cmax ([2]; C max,ss geometric mean (CV), Concomitant use of OAT1/OAT3 inhibitor(s): Yes) of 78.5 µg/mL and a Cmax ([2]; C max,ss geometric mean (CV), Fever at baseline: Missing) of 75.1 µg/mL. For the same molecule, the Cmax ([2]; C max,ss geometric mean (CV), Fever at baseline: No) was 71.9 µg/mL, the Cmax ([2]; C max,ss geometric mean (CV), Fever at baseline: Yes) was 72.1 µg/mL and the Cmax ([2]; C max,ss geometric mean (CV), Obesity I (29.9 ≤ BMI < 34.9 kg/m^2)) was 67.9 µg/mL. It also gave a Cmax ([2]; C max,ss geometric mean (CV), Obesity II (34.9 ≤ BMI < 39.9 kg/m^2)) of 73.7 µg/mL, a Cmax ([2]; C max,ss geometric mean (CV), Obesity III (BMI ≥ 39.9 kg/m^2)) of 64.2 µg/mL and a Cmax ([2]; C max,ss geometric mean (CV), Obesity: Missing) of 70.9 µg/mL. The Cmax ([2]; C max,ss geometric mean (CV), Obesity: Normal) was 73 µg/mL, the Cmax ([2]; C max,ss geometric mean (CV), Race: Asian (non‐Chinese; non‐Japanese)) was 82.2 µg/mL and the Cmax ([2]; C max,ss geometric mean (CV), Race: Chinese and Taiwanese) was 77.6 µg/mL. It also gave a Cmax ([2]; C max,ss geometric mean (CV), Race: Japanese) of 90.4 µg/mL, a Cmax ([2]; C max,ss geometric mean (CV), Race: White/other) of 68.6 µg/mL and an AUC ([2]; intravenous) of 748 µg·h/mL. For the same molecule, the Cmax ([2]; intravenous) was 67 µg/mL, the AUC ([2]; intravenous, 187.5 mg, AUCss,0–24 geometric mean (CV), Day 3 CrCL 8–15 mL/min (750‐187.5 mg q24 h)) was 551 µg·h/mL and the Cmax ([2]; intravenous, 187.5 mg, C max,ss geometric mean (CV), Day 3 CrCL 8–15 mL/min (750‐187.5 mg q24 h)) was 34.3 µg/mL. For the same molecule, the AUC ([2]; intravenous, 500 mg, AUCss,0–24 geometric mean (CV), Day 3 CrCL > 150–180 mL/min (2000‐500 mg q8 h)) was 652 µg·h/mL, the Cmax ([2]; intravenous, 500 mg, C max,ss geometric mean (CV), Day 3 CrCL > 150–180 mL/min (2000‐500 mg q8 h)) was 58.5 µg/mL and the AUC ([2]; intravenous, AUCss,0–24 geometric mean (CV), Asian population: Korea) was 952 µg·h/mL. It also gave an AUC ([2]; intravenous, AUCss,0–24 geometric mean (CV), Asian population: Taiwan) of 728 µg·h/mL, an AUC ([2]; intravenous, AUCss,0–24 geometric mean (CV), Asian population: Vietnam) of 852 µg·h/mL and an AUC ([2]; intravenous, AUCss,0–24 geometric mean (CV), Bacteremia at baseline: No) of 881 µg·h/mL. For the same molecule, the AUC ([2]; intravenous, AUCss,0–24 geometric mean (CV), Bacteremia at baseline: Yes) was 919 µg·h/mL, the AUC ([2]; intravenous, AUCss,0–24 geometric mean (CV), Baseline APACHE II score > 10) was 938 µg·h/mL and the AUC ([2]; intravenous, AUCss,0–24 geometric mean (CV), Baseline APACHE II score Missing) was 979 µg·h/mL. It also gave an AUC ([2]; intravenous, AUCss,0–24 geometric mean (CV), Baseline WBC count (cells/μL) > 12,000) of 801 µg·h/mL, an AUC ([2]; intravenous, AUCss,0–24 geometric mean (CV), Baseline WBC count (cells/μL) ≤ 12,000) of 923 µg·h/mL and an AUC ([2]; intravenous, AUCss,0–24 geometric mean (CV), Patient population: NP) of 950 µg·h/mL. It also gave an AUC ([2]; intravenous, AUCss,0–24 geometric mean (CV), Patient population: Non‐VAP) of 1020 µg·h/mL, an AUC ([2]; intravenous, AUCss,0–24 geometric mean (CV), Patient population: VAP) of 830 µg·h/mL and an AUC ([2]; intravenous, AUCss,0–24 geometric mean (CV), Patient population: cIAI) of 749 µg·h/mL. For the same molecule, the AUC ([2]; intravenous, AUCss,0–24 geometric mean (CV), Patient population: cUTI) was 979 µg·h/mL, the AUC ([2]; intravenous, AUCss,0–24 geometric mean (CV), SIRS at baseline: Missing) was 977 µg·h/mL and the AUC ([2]; intravenous, AUCss,0–24 geometric mean (CV), SIRS at baseline: No) was 895 µg·h/mL. It also gave an AUC ([2]; intravenous, AUCss,0–24 geometric mean (CV), SIRS at baseline: Yes) of 869 µg·h/mL, a Cmax ([2]; intravenous, C max,ss geometric mean (CV), Asian population: Taiwan) of 59.4 µg/mL and a Cmax ([2]; intravenous, C max,ss geometric mean (CV), Asian population: Vietnam) of 78.6 µg/mL. For the same molecule, the Cmax ([2]; intravenous, C max,ss geometric mean (CV), Bacteremia at baseline: No) was 71.9 µg/mL, the Cmax ([2]; intravenous, C max,ss geometric mean (CV), Bacteremia at baseline: Yes) was 73.6 µg/mL and the Cmax ([2]; intravenous, C max,ss geometric mean (CV), Baseline APACHE II score > 10) was 72.3 µg/mL. The Cmax ([2]; intravenous, C max,ss geometric mean (CV), Baseline APACHE II score Missing) was 77.9 µg/mL, the Cmax ([2]; intravenous, C max,ss geometric mean (CV), Baseline WBC count (cells/μL) > 12,000) was 67.6 µg/mL and the Cmax ([2]; intravenous, C max,ss geometric mean (CV), Baseline WBC count (cells/μL) ≤ 12,000) was 74.6 µg/mL. For the same molecule, the Cmax ([2]; intravenous, C max,ss geometric mean (CV), Patient population: NP) was 72.9 µg/mL, the Cmax ([2]; intravenous, C max,ss geometric mean (CV), Patient population: Non‐VAP) was 79 µg/mL and the Cmax ([2]; intravenous, C max,ss geometric mean (CV), Patient population: VAP) was 61.9 µg/mL. The Cmax ([2]; intravenous, C max,ss geometric mean (CV), Patient population: cIAI) was 66.9 µg/mL, the Cmax ([2]; intravenous, C max,ss geometric mean (CV), Patient population: cUTI) was 77.9 µg/mL and the Cmax ([2]; intravenous, C max,ss geometric mean (CV), SIRS at baseline: Missing) was 83.5 µg/mL. For the same molecule, the Cmax ([2]; intravenous, C max,ss geometric mean (CV), SIRS at baseline: No) was 72.3 µg/mL, the Cmax ([2]; intravenous, C max,ss geometric mean (CV), SIRS at baseline: Yes) was 71.5 µg/mL and the “difference in steady‐state exposure vs. healthy volunteers” value ([2]; most patient subgroups) was no more than 20%. The “lower C max,ss” value ([2]; patients with VAP vs non‐VAP patients) was ~ 20%, the “lower V c” value ([3]; Asian compared with non‐Asian patients) was 27% and the “lower CL” value ([3]; Chinese patients vs non‐Asians) was 9%. For the same molecule, the “Slope 1: CrCL < 100 mL/min, slope1*CrCL” value ([3]; CrCL effect on CL) was 0.0103, the “lower V c” value ([3]; body weight at 10th percentile (50 kg) vs median weight (70 kg)) was 24% and the clearance ([3]; human, plasma, intravenous, θ1: CL, typical value) was 116 mL/min. The “θ9: Population effect on V c (cUTI)” value ([3]; in vivo) was 1.03, the “θ10: Population effect on V c (cIAI or NP)” value ([3]; in vivo) was 1.14 and the “θ13: WT effect on V c” value ([3]; in vivo) was 1.01. The “θ14: Population effect on V c (NPv)” value ([3]; in vivo) was 0.297, the “lower CL” value ([3]; non‐Chinese, non‐Japanese Asians vs non‐Asians) was 16% and the “higher V c” value ([3]; patients with NPv vs non‐NPv patients) was 29.7%. For the same molecule, the “higher CL” value ([3]; patients with cIAI vs. healthy subjects and patients with cUTI) was 16%, the “θ2: V c” value ([3]; typical value) was 10.5 L and the “θ3: Q” value ([3]; typical value) was 31.5 L/h. For the same molecule, the “θ4: V p” value ([3]; typical value) was 7.57 L.
